ChEMBL document CHEMBL5705903, “A DNA Hypomethylation Signature Predicts Antitumor Activity of LSD1 Inhibitors in SCLC” (Cancer Cell, 2015)

Columns and labels:
[1] = molecular target: T1, 5-hydroxytryptamine receptor 1B (Homo sapiens, UniProt P28222); test: Agonist activity at 5-HT1B receptor (unknown origin); type: functional
[2] = molecular target: T1, 5-hydroxytryptamine receptor 1B; test: Antagonist activity at 5-HT1B (unknown origin); type: functional
[3] = molecular target: T2, Beta-2 adrenergic receptor (Homo sapiens, UniProt P07550); test: Antagonist activity at Adrenergic b2 receptor (unknown origin); type: functional
T2 sequence (P07550 whole entry): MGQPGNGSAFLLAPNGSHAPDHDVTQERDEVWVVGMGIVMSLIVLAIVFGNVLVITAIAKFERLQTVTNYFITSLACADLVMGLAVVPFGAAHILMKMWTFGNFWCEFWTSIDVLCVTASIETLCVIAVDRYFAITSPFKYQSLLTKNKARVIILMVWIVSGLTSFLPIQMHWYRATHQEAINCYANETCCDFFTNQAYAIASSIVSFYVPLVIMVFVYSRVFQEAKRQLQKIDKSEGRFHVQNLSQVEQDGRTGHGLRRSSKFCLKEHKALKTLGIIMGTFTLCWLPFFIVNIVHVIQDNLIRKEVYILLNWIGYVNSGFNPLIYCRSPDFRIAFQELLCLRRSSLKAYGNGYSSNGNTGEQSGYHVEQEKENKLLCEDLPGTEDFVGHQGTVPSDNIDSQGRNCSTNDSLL

[4] = molecular target: Aryl hydrocarbon receptor (Homo sapiens, UniProt P35869); test: Activation of AhR (unknown origin)
[5] = molecular target: Serotonin 3 (5-HT3) receptor; test: Inhibition of 5-HT3 receptor (unknown origin); type: protein-complex assay, Homo sapiens
[6] = molecular target: T2, Beta-2 adrenergic receptor; test: Agonist activity at Adrenergic b2 receptor (unknown origin); type: functional
[7] = molecular target: T3, Muscarinic acetylcholine receptor M2 (Homo sapiens, UniProt P08172); test: Agonist activity at Muscarinic M2 receptor (unknown origin); type: functional
T3 sequence (P08172 whole entry): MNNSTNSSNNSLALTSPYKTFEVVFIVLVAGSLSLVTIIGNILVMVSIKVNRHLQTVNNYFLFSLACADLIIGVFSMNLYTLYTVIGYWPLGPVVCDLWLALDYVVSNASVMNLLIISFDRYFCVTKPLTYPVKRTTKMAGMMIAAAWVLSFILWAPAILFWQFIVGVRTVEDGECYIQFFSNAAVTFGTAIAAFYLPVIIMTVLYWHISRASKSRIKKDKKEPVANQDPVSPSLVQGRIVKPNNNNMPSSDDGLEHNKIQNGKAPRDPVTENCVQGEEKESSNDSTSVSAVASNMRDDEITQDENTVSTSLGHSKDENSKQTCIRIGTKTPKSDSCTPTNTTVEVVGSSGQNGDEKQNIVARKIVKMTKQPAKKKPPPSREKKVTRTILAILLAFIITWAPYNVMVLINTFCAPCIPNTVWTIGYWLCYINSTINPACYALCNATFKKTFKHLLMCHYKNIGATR

[8] = molecular target: Sodium channel protein type 5 subunit alpha (Homo sapiens, UniProt Q14524); test: Inhibition of Nav1.5 (unknown origin)
Sequence of Sodium channel protein type 5 subunit alpha (Q14524 whole entry): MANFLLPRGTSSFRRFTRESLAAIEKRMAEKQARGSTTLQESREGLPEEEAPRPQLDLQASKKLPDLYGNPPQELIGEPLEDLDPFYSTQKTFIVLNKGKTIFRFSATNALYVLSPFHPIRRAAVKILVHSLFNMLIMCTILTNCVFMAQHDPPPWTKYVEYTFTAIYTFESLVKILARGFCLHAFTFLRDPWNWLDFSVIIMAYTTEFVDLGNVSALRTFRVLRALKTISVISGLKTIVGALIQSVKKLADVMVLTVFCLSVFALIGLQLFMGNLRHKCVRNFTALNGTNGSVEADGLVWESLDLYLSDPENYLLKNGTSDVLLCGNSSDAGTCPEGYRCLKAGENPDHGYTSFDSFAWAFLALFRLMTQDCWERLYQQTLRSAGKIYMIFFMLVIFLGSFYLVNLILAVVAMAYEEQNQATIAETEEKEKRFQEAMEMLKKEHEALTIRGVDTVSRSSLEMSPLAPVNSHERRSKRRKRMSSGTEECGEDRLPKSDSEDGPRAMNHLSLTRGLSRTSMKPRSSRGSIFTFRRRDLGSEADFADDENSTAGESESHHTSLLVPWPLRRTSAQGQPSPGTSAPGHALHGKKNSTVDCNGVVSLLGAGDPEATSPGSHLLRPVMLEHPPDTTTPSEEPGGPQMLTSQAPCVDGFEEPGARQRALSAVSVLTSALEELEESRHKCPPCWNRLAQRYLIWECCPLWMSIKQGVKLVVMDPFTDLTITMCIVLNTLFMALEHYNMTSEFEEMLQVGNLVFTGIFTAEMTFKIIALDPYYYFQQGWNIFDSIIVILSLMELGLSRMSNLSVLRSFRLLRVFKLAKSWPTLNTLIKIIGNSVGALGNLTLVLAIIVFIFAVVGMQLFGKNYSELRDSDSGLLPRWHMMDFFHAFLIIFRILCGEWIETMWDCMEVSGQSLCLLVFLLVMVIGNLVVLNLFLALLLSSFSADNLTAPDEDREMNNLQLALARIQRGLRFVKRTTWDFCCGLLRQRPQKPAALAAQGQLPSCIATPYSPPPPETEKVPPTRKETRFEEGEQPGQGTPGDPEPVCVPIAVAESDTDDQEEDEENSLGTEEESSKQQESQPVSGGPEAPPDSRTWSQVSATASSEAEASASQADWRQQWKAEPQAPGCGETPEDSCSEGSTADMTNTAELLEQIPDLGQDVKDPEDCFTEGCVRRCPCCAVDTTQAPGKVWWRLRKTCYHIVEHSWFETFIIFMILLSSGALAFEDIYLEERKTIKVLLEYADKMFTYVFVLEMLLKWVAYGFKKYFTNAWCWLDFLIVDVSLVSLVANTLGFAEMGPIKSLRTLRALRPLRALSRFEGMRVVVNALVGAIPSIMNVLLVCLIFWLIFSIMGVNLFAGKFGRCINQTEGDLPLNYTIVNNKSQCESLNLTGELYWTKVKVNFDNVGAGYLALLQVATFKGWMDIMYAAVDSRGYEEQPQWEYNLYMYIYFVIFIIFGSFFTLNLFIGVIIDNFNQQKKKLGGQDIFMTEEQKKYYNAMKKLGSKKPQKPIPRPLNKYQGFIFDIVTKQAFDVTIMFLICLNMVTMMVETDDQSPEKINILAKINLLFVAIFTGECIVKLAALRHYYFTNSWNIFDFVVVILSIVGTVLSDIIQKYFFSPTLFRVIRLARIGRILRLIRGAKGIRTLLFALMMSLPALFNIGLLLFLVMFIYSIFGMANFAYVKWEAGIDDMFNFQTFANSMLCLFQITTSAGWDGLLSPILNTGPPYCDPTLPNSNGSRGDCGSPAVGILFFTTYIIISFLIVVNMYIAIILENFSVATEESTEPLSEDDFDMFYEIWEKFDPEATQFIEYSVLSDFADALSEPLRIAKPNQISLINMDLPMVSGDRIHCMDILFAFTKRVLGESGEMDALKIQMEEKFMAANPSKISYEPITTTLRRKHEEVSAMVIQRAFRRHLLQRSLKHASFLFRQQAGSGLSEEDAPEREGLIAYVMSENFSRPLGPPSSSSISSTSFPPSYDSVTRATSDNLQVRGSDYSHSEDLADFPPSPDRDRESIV

[9] = molecular target: Aurora kinase B (Homo sapiens, UniProt Q96GD4); test: Inhibition of Aurora B (unknown origin)
[10] = molecular target: Solute carrier organic anion transporter family member 1B1 (Homo sapiens, UniProt Q9Y6L6); test: Inhibition of OATP1B1 (unknown origin)
[11] = molecular target: Sodium-dependent serotonin transporter (Homo sapiens, UniProt P31645); test: Inhibition of SERT (unknown origin)
[12] = molecular target: Histamine H1 receptor (Homo sapiens, UniProt P35367); test: Antagonist activity at Histamine H1 receptor (unknown origin); type: functional
[13] = molecular target: T4, 5-hydroxytryptamine receptor 2A (Homo sapiens, UniProt P28223); test: Agonist activity at 5-HT2A receptor (unknown origin); type: functional
T4 sequence (P28223 whole entry): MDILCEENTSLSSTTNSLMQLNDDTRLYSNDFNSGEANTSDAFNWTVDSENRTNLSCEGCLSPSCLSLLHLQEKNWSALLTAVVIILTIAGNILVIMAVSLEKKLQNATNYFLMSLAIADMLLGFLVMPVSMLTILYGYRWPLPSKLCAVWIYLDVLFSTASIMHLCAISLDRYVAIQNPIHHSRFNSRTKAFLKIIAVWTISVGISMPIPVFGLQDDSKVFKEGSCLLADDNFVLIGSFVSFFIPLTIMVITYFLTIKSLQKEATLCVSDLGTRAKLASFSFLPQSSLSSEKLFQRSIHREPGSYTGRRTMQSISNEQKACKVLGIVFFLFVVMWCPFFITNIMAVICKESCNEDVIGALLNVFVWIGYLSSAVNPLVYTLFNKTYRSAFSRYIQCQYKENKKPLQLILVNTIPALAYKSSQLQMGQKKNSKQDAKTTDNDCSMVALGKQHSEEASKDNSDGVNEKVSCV

[14] = molecular target: T5, Muscarinic acetylcholine receptor M1 (Homo sapiens, UniProt P11229); test: Agonist activity at Muscarinic M1 receptor (unknown origin); type: functional
T5 sequence (P11229 whole entry): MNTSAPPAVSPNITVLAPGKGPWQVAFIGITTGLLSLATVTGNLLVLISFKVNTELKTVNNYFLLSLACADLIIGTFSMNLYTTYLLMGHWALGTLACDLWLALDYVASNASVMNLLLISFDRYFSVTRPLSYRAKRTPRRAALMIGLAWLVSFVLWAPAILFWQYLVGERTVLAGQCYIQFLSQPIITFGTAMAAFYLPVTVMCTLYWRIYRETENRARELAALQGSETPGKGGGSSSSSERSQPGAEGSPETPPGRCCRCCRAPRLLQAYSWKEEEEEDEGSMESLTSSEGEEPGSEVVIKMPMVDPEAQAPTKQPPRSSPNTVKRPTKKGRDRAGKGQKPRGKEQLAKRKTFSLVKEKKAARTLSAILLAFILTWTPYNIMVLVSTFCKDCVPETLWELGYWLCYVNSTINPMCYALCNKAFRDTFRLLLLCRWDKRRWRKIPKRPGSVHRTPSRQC

[15] = molecular target: Kappa-type opioid receptor (Homo sapiens, UniProt P41145); test: Agonist activity at KOR (unknown origin); type: functional
[16] = molecular target: Acetylcholinesterase (Homo sapiens, UniProt P22303); test: Inhibition of AChE (unknown origin)
[17] = molecular target: Mu-type opioid receptor (Homo sapiens, UniProt P35372); test: Agonist activity at MOR (unknown origin); type: functional
[18] = molecular target: Potassium voltage-gated channel subfamily A member 5 (Homo sapiens, UniProt P22460); test: Inhibition of Kv1.5 (unknown origin)
[19] = molecular target: T5, Muscarinic acetylcholine receptor M1; test: Antagonist activity at Muscarinic M1 receptor (unknown origin); type: functional
[20] = molecular target: Alpha-1B adrenergic receptor (Homo sapiens, UniProt P35368); test: Agonist activity at Adrenergic a1B receptor (unknown origin); type: functional
Sequence of Alpha-1B adrenergic receptor (P35368 whole entry): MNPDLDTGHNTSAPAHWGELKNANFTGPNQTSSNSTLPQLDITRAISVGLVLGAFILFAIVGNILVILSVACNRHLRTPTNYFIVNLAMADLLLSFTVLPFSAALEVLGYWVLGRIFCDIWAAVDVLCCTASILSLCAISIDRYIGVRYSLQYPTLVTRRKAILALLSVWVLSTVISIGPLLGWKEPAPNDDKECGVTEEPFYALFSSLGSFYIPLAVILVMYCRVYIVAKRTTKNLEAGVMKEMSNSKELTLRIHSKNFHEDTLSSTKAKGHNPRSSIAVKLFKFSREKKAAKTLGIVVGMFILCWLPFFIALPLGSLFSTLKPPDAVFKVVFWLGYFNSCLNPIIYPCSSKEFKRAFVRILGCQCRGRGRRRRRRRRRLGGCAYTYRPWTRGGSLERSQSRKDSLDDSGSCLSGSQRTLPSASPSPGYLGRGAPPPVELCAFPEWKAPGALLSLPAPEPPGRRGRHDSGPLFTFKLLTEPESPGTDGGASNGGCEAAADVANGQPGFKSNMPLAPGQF

[21] = molecular target: D(2) dopamine receptor (Homo sapiens, UniProt P14416); test: Antagonist activity at Dopamine D2 receptor (unknown origin); type: functional
[22] = molecular target: Voltage-gated inwardly rectifying potassium channel KCNH2 (Homo sapiens, UniProt Q12809); test: Inhibition of hERG (unknown origin); type: toxicity
[23] = molecular target: Substance-P receptor (Homo sapiens, UniProt P25103); test: Antagonist activity at NK1 receptor (unknown origin); type: functional
[24] = molecular target: T4, 5-hydroxytryptamine receptor 2A; test: Antagonist activity at 5-HT2A receptor (unknown origin); type: functional
[25] = Inhibition of AChR receptor (unknown origin); set-up: species or system Homo sapiens
[26] = molecular target: T3, Muscarinic acetylcholine receptor M2; test: Antagonist activity at Muscarinic M2 receptor (unknown origin); type: functional
[27] = molecular target: Adenosine receptor A2a (Homo sapiens, UniProt P29274); test: Agonist activity at Adenosine A2a receptor (unknown origin); type: functional
[28] = molecular target: Cannabinoid receptor 2 (Homo sapiens, UniProt P34972); test: Agonist activity at Cannabinoid CB2 receptor (unknown origin); type: functional
[29] = molecular target: cGMP-inhibited 3',5'-cyclic phosphodiesterase 3A (Homo sapiens, UniProt Q14432); test: Inhibition of PDE3A (unknown origin)
Sequence of cGMP-inhibited 3',5'-cyclic phosphodiesterase 3A (Q14432 whole entry): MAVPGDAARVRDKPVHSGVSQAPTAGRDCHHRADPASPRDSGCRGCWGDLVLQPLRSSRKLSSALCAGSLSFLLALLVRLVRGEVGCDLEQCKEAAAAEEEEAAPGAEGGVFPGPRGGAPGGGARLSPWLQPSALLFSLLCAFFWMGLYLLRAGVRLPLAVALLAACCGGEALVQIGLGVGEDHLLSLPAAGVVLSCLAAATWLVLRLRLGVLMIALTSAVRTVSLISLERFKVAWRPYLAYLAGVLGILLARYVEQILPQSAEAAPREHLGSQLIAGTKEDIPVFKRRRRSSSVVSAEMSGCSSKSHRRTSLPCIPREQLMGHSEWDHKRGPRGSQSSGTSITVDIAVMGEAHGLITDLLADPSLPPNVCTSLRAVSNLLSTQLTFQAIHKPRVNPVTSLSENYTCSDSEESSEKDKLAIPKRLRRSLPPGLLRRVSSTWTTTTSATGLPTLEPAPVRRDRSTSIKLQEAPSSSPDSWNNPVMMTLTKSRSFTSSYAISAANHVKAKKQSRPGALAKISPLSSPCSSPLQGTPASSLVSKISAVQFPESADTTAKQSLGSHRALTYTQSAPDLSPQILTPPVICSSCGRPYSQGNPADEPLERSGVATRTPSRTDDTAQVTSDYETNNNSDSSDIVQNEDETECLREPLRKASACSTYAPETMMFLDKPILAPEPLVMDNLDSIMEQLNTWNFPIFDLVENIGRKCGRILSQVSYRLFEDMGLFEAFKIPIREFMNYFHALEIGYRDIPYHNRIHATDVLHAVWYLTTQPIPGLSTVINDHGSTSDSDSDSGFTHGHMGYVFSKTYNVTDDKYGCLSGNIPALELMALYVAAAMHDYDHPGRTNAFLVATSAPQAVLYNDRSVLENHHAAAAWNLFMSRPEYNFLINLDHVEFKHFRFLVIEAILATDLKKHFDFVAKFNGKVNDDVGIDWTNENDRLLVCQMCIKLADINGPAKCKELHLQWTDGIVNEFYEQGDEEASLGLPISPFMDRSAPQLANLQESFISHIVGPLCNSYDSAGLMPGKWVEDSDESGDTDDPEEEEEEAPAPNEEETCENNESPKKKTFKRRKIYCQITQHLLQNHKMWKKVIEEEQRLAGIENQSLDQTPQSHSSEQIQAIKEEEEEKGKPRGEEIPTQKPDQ

[30] = molecular target: Vasopressin V1a receptor (Homo sapiens, UniProt P37288); test: Antagonist activity at V1a receptor (unknown origin); type: functional
[31] = molecular target: T6, 5-hydroxytryptamine receptor 2C (Homo sapiens, UniProt P28335); test: Antagonist activity at 5-HT2C receptor (unknown origin); type: functional
T6 sequence (P28335 whole entry): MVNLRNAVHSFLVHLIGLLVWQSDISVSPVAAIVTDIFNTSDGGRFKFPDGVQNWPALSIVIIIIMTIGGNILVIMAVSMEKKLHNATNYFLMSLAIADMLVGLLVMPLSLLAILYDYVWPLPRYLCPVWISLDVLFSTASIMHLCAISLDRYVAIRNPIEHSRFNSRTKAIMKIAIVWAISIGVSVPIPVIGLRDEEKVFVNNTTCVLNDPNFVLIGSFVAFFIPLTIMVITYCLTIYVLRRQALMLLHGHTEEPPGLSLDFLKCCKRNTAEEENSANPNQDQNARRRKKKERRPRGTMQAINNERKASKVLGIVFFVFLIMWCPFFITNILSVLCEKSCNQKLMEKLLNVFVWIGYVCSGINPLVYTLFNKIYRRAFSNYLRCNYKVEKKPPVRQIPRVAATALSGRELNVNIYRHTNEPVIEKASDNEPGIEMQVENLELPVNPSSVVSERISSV

[32] = molecular target: Voltage-gated potassium channel, IKs; KCNQ1(Kv7.1)/KCNE1(MinK) (Homo sapiens, UniProt P15382+P51787); test: Inhibition of KCNQ1/minK (unknown origin); type: protein-complex assay

T1 sequence (P28222 whole entry): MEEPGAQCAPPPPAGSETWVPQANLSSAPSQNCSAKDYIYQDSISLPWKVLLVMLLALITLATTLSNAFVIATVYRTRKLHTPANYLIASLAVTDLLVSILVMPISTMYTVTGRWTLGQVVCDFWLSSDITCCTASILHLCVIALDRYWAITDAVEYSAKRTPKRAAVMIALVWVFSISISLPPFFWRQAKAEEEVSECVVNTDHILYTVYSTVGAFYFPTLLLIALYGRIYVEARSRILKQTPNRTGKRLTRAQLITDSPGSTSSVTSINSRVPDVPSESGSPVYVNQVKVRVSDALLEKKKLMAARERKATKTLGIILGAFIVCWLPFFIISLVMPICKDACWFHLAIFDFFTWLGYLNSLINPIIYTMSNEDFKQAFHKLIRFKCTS

SMILES	EC50 [1]	EC50 [2]	EC50 [3]	EC50 [4]	IC50 [5]	EC50 [6]	EC50 [7]	IC50 [8]	IC50 [9]	IC50 [10]	IC50 [11]	EC50 [12]	EC50 [13]	EC50 [14]	EC50 [15]	IC50 [16]	EC50 [17]	IC50 [18]	EC50 [19]	EC50 [20]	also measured
O=C(O)c1ccc(CN2CCC(CN[C@@H]3C[C@H]3c3ccccc3)CC2)cc1 [GSK2879552]	> 32 µM	> 30 µM	> 32 µM	> 100 µM	> 30 µM	> 32 µM	> 16 µM	80 µM	> 32 µM	> 30 µM	80 µM	> 40 µM	> 40 µM	> 16 µM	> 100 µM	> 100 µM	> 100 µM	> 30 µM	> 16 µM	> 40 µM	EC50 [21]: > 100 µM; IC50 [22]: > 25 µM; EC50 [23]: > 40 µM; EC50 [24]: 20 µM; IC50 [25]: > 50 µM; EC50 [26]: > 16 µM; EC50 [27]: > 32 µM; EC50 [28]: > 100 µM; IC50 [29]: > 100 µM; EC50 [30]: > 30 µM; EC50 [31]: > 40 µM; IC50 [32]: > 25 µM
c1ccc([C@@H]2C[C@H]2NC2CCNCC2)cc1	5 µM	> 100 µM	> 100 µM	> 100 µM	> 30 µM	> 100 µM	> 30 µM	> 100 µM	> 32 µM	> 30 µM	2 µM	> 25 µM	> 25 µM	> 30 µM	> 100 µM	> 100 µM	> 100 µM	> 30 µM	> 30 µM	> 25 µM	EC50 [21]: > 100 µM; IC50 [22]: > 30 µM; EC50 [23]: > 25 µM; EC50 [24]: 16 µM; IC50 [25]: > 50 µM; EC50 [26]: > 30 µM; EC50 [27]: > 100 µM; EC50 [28]: > 100 µM; IC50 [29]: > 100 µM; EC50 [30]: > 30 µM; EC50 [31]: > 25 µM; IC50 [32]: > 25 µM
